# In PubChem BioAssay AID1963865 (Molecular Pharmacology Branch, DTP, NCI, 2024):
# System: KRAS PDC multicell spheroid viability
# Test: Anticancer human tumor 825966-067-R-J1-PDC patient-derived colon carcinoma cell line growth inhibition [KRAS2]
# Settings: for IC50: curve of first compound; for viability, T/C: stronger effect = lower value
# Procedure, shortened: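 Combination screen of spheroid viability in tumor-cell co-cultures with endothelial (HUVEC) and mesenchymal stem cell stroma. Each agent was tested in half-log dilutions, topping at clinical Cmax or at 10 microM without a known Cmax.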
# [1] = second compound 0.1 µM, first compound 0.000316 µM
# [2] = second compound 0.1 µM, first compound 0.001 µM
# [3] = second compound 0.1 µM, first compound 0.00316 µM
# [4] = second compound 0.1 µM, first compound 0.01 µM
# [5] = second compound 0.1 µM, first compound 0.0316 µM
# [6] = second compound 0.316 µM, first compound 0.000316 µM
# [7] = second compound 0.316 µM, first compound 0.001 µM
# [8] = second compound 0.316 µM, first compound 0.00316 µM
# [9] = second compound 0.316 µM, first compound 0.01 µM
# [10] = second compound 0.316 µM, first compound 0.0316 µM
# [11] = second compound 1 µM, first compound 0.000316 µM
# [12] = second compound 1 µM, first compound 0.001 µM
# [13] = second compound 1 µM, first compound 0.00316 µM
# [14] = second compound 1 µM, first compound 0.01 µM
# [15] = second compound 1 µM, first compound 0.0316 µM
# [16] = second compound 3.16 µM, first compound 0.000316 µM
# [17] = second compound 3.16 µM, first compound 0.001 µM
# [18] = second compound 3.16 µM, first compound 0.00316 µM
# [19] = second compound 3.16 µM, first compound 0.01 µM
# [20] = second compound 3.16 µM, first compound 0.0316 µM
# [21] = second compound 10 µM, first compound 0.000316 µM
# [22] = second compound 10 µM, first compound 0.001 µM
# [23] = second compound 10 µM, first compound 0.00316 µM
# [24] = second compound 10 µM, first compound 0.01 µM
# [25] = second compound 10 µM, first compound 0.0316 µM
# [26] = second compound 0.1 µM, first compound 0.1 µM
# [27] = second compound 0.316 µM, first compound 0.1 µM
# [28] = second compound 1 µM, first compound 0.1 µM
# [29] = second compound 3.16 µM, first compound 0.1 µM
# [30] = second compound 10 µM, first compound 0.1 µM
# 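Further: spheroids exposed to compounds for 7 days.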
# 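Wherever viability, T/C is given: 100% = DMSO vehicle control viability.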
smiles,measurement,setting,value
CC(=O)Nc1cccc(-n2c(=O)n(C3CC3)c(=O)c3c(Nc4ccc(I)cc4F)n(C)c(=O)c(C)c32)c1 + COc1cc2nc(C)nc(NC(C)c3cc(N)cc(C(F)(F)F)c3)c2cc1OC1CCOC1,IC50,second compound 0.1 µM,> 31.6 nM
same,IC50,second compound 0.316 µM,29.6 nM
same,IC50,second compound 1 µM,18.5 nM
same,IC50,second compound 3.16 µM,3.25 nM
same,IC50,second compound 10 µM,< 0.1 nM
same,"viability, T/C","second compound 0.1 µM, first compound 0.0001 µM",95.3%
same,"viability, T/C",[1],114%
same,"viability, T/C",[2],144%
same,"viability, T/C",[3],128%
same,"viability, T/C",[4],64%
same,"viability, T/C",[5],84.8%
same,"viability, T/C","second compound 0.316 µM, first compound 0.0001 µM",95%
same,"viability, T/C",[6],126%
same,"viability, T/C",[7],128%
same,"viability, T/C",[8],110%
same,"viability, T/C",[9],94.2%
same,"viability, T/C",[10],47.3%
same,"viability, T/C","second compound 1 µM, first compound 0.0001 µM",98.5%
same,"viability, T/C",[11],103%
same,"viability, T/C",[12],113%
same,"viability, T/C",[13],114%
same,"viability, T/C",[14],72.3%
same,"viability, T/C",[15],30.6%
same,"viability, T/C","second compound 3.16 µM, first compound 0.0001 µM",109%
same,"viability, T/C",[16],109%
same,"viability, T/C",[17],128%
same,"viability, T/C",[18],50.9%
same,"viability, T/C",[19],18.8%
same,"viability, T/C",[20],5.41%
same,"viability, T/C","second compound 10 µM, first compound 0.0001 µM",2.53%
same,"viability, T/C",[21],2.62%
same,"viability, T/C",[22],0.97%
same,"viability, T/C",[23],0.39%
same,"viability, T/C",[24],0.39%
same,"viability, T/C",[25],0.27%
CN(C)C/C=C/C(=O)Nc1cc2c(Nc3ccc(F)c(Cl)c3)ncnc2cc1O[C@H]1CCOC1 + COc1cc2nc(C)nc(NC(C)c3cc(N)cc(C(F)(F)F)c3)c2cc1OC1CCOC1,IC50,second compound 0.1 µM,> 100 nM
same,IC50,second compound 0.316 µM,> 100 nM
same,IC50,second compound 1 µM,> 100 nM
same,IC50,second compound 3.16 µM,> 100 nM
same,IC50,second compound 10 µM,> 100 nM
same,"viability, T/C",[1],94%
same,"viability, T/C",[2],96.7%
same,"viability, T/C",[3],82.9%
same,"viability, T/C",[4],101%
same,"viability, T/C",[5],96.1%
same,"viability, T/C",[26],91.8%
same,"viability, T/C",[6],103%
same,"viability, T/C",[7],107%
same,"viability, T/C",[8],95.9%
same,"viability, T/C",[9],98.9%
same,"viability, T/C",[10],105%
same,"viability, T/C",[27],103%
same,"viability, T/C",[11],92.2%
same,"viability, T/C",[12],96%
same,"viability, T/C",[13],105%
same,"viability, T/C",[14],97.2%
same,"viability, T/C",[15],99.2%
same,"viability, T/C",[28],83.5%
same,"viability, T/C",[16],133%
same,"viability, T/C",[17],119%
same,"viability, T/C",[18],107%
same,"viability, T/C",[19],115%
same,"viability, T/C",[20],106%
same,"viability, T/C",[29],105%
same,"viability, T/C",[21],108%
same,"viability, T/C",[22],103%
same,"viability, T/C",[23],116%
same,"viability, T/C",[24],106%
same,"viability, T/C",[25],105%
same,"viability, T/C",[30],95.2%
COC(=O)c1ccc2c(C(=Nc3ccc(N(C)C(=O)CN4CCN(C)CC4)cc3)c3ccccc3)c(O)[nH]c2c1 + COc1cc2nc(C)nc(NC(C)c3cc(N)cc(C(F)(F)F)c3)c2cc1OC1CCOC1,IC50,second compound 0.1 µM,1670 nM
same,IC50,second compound 0.316 µM,1570 nM
same,IC50,second compound 1 µM,836 nM
same,IC50,second compound 3.16 µM,592 nM
same,IC50,second compound 10 µM,< 31.6 nM
same,"viability, T/C",[5],89.6%
same,"viability, T/C",[26],95.6%
same,"viability, T/C","second compound 0.1 µM, first compound 0.316 µM",81.4%
same,"viability, T/C","second compound 0.1 µM, first compound 1 µM",92.9%
same,"viability, T/C","second compound 0.1 µM, first compound 3.16 µM",0.3%
same,"viability, T/C","second compound 0.1 µM, first compound 10 µM",0.16%
same,"viability, T/C",[10],94.4%
same,"viability, T/C",[27],79.9%
same,"viability, T/C","second compound 0.316 µM, first compound 0.316 µM",82.4%
same,"viability, T/C","second compound 0.316 µM, first compound 1 µM",81.8%
same,"viability, T/C","second compound 0.316 µM, first compound 3.16 µM",0.33%
same,"viability, T/C","second compound 0.316 µM, first compound 10 µM",0.13%
same,"viability, T/C",[15],88.1%
same,"viability, T/C",[28],98.1%
same,"viability, T/C","second compound 1 µM, first compound 0.316 µM",92.3%
same,"viability, T/C","second compound 1 µM, first compound 1 µM",42.1%
same,"viability, T/C","second compound 1 µM, first compound 3.16 µM",0.16%
same,"viability, T/C","second compound 1 µM, first compound 10 µM",0.13%
same,"viability, T/C",[20],95%
same,"viability, T/C",[29],103%
same,"viability, T/C","second compound 3.16 µM, first compound 0.316 µM",101%
same,"viability, T/C","second compound 3.16 µM, first compound 1 µM",8.39%
same,"viability, T/C","second compound 3.16 µM, first compound 3.16 µM",0.1%
same,"viability, T/C","second compound 3.16 µM, first compound 10 µM",2%
same,"viability, T/C",[25],9.43%
same,"viability, T/C",[30],10.3%
same,"viability, T/C","second compound 10 µM, first compound 0.316 µM",1.07%
same,"viability, T/C","second compound 10 µM, first compound 1 µM",0.34%
same,"viability, T/C","second compound 10 µM, first compound 3.16 µM",0.13%
same,"viability, T/C","second compound 10 µM, first compound 10 µM",0.58%
